Patent US12552785B2, “Pyrazolo[1,5-α]pyridine derivative, preparation method therefor, and composition and use thereof” (SHENZHEN ZHONGGE BIOLOGICAL TECHNOLOGY CO., LTD., priority 2020, dated 2026)

Assays:
RET = RET (Homo sapiens, UniProt P07949); experiment: HTRF method for testing the inhibitory activity of compounds against RET; type: biochemical; conditions: IC50 by nonlinear regression, read-out: RET kinase activity
Protocol: (a) In Vitro Screening Experiment-HTRF Method for Testing the Inhibitory Activity of Compounds Against RET Experimental Procedure: 1. […] 2. The test compound (5 mM stock solution) was diluted 5 folds to 1 mM with 100% dimethyl sulfoxide; the compound was diluted into 10 concentrations at an equal ratio of 1:3 in a 384-well dilution plate. 3. 0.2 μL of the serially diluted compound was added to a 384-well plate using an Echo 550 pipetting system, 2 replicate wells for each concentration, and the final concentration of dimethyl sulfoxide was 0.5% (v/v). […] 6. […] The reaction solution was centrifuged at 1000 g for 30 s, and then sealed, and incubated at room temperature for 30 min. 8. […] 10. […] 11. […] IC50 was calculated with software GraphPad 6.0 by fitting inhibition values and logarithms of compound concentrations to a nonlinear regression (dose response−variable slope).

VEGFR2 = VEGFR2 (Homo sapiens, UniProt P35968); experiment: HTRF method for testing the inhibitory activity of compounds against VEGFR2; type: biochemical; conditions: IC50 by nonlinear regression, read-out: VEGFR2 kinase activity
VEGFR2, sequence (P35968 20-1356, species assumed): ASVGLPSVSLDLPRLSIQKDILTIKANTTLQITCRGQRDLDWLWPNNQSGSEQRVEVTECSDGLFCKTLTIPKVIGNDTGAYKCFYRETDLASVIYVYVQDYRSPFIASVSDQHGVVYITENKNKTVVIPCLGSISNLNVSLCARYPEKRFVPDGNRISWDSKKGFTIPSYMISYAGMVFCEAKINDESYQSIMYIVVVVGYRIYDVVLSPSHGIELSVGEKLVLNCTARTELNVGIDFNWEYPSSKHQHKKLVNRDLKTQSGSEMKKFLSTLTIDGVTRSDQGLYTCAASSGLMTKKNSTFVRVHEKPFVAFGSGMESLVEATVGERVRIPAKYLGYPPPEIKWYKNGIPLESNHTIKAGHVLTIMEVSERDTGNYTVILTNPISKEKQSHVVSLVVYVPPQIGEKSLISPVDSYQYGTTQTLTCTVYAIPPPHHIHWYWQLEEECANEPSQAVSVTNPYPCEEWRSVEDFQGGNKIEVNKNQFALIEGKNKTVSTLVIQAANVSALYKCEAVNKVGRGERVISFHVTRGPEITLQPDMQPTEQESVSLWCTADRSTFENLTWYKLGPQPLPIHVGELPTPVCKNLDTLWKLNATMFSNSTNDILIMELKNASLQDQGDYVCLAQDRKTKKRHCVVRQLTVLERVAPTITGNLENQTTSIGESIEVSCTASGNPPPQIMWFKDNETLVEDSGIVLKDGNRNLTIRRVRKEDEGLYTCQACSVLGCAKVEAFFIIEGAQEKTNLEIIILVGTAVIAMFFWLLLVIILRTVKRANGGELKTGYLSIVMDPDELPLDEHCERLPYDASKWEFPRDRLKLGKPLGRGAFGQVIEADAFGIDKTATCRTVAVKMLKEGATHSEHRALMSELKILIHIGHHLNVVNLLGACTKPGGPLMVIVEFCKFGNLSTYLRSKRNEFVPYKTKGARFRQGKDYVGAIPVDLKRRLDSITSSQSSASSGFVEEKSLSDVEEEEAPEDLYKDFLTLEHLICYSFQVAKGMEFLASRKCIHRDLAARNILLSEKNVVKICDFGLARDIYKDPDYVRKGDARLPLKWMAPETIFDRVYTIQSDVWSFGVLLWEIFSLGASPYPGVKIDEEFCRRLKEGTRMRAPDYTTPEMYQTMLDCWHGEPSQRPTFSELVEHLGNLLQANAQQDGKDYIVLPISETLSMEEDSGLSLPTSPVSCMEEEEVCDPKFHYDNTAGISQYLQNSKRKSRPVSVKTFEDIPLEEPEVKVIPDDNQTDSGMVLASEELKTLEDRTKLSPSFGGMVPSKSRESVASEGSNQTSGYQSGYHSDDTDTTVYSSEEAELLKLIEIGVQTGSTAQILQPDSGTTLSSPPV
Protocol: (b) In Vitro Screening Experiment—HTRF Method for Testing the Inhibitory Activity of Compounds Against VEGFR2 Experimental Procedure: 1. […] The test compound (5 mM stock solution) was diluted 5 folds to 1 mM with 100% dimethyl sulfoxide; the compound was diluted into 10 concentrations at an equal ratio of 1:3 in a 384-well dilution plate. 3. […] 6. […] The reaction solution was centrifuged at 1000 g for 30 s, and then sealed, and incubated at room temperature for 40 min. 8. […] 10. […] 11. […] 12. IC50 was calculated with software GraphPad 6.0 by fitting inhibition values and logarithms of compound concentrations to a nonlinear regression (dose response−variable slope).

Ba/F3-KIF5B-RET cell = target: T1, Ba/F3-KIF5B-RET cell (Homo sapiens, UniProt P07949); experiment: CellTiter-Glo luminescence assay for inhibitory activity against Ba/F3-KIF5B-RET cell; type: cell-based; conditions: Ba/F3-KIF5B-RET cells, 72 h
T1 construct: fused on or other part: P33176 (Kinesin-1 heavy chain)
T1 sequence (P07949 whole entry, stated change not applied, the tested form may be a part): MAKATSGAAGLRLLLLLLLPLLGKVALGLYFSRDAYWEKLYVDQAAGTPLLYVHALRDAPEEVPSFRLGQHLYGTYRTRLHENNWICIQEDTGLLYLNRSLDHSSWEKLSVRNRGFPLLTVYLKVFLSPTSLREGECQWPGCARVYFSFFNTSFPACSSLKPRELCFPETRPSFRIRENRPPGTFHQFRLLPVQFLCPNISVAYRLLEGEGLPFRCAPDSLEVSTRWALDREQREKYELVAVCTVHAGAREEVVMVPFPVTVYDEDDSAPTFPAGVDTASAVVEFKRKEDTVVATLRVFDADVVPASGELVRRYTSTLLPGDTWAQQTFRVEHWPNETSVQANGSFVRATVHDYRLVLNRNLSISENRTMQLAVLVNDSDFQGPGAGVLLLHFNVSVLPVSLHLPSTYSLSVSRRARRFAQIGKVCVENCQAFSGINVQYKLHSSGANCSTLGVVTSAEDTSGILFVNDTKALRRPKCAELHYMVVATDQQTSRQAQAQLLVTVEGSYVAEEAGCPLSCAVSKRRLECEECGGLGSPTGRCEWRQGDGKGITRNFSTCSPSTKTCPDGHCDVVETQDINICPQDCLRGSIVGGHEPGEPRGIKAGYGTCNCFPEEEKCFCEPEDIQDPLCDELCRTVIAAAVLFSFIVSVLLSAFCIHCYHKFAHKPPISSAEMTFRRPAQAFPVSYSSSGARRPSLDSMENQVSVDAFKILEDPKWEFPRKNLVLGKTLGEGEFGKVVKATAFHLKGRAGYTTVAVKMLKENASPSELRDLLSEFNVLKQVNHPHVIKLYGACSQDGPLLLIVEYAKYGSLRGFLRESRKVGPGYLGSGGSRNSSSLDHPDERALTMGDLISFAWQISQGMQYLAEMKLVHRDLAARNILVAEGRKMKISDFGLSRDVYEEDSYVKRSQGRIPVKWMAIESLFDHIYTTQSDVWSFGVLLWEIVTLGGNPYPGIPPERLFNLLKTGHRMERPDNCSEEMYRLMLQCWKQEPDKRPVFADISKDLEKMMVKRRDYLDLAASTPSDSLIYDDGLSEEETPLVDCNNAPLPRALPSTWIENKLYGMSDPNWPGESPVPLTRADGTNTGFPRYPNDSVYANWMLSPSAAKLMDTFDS
Excerpt: (c) In Vitro Screening Experiment—CellTiter-Glo Luminescence Assay for Testing the Inhibitory Activity of Compounds Against Ba/F3-KIF5B-RET Cell Experimental Procedure: 1. The mammalian cell expression vector containing human KIF5B-RET cDNA was introduced into Ba/F3 cells using the Neon® transfection system method, and the surviving clones screened by puromycin were subjected to cell growth inhibitory function experiments and Western blotting to verify cell lines with stable and high expression of RET. 2. […] 3. The test compound (5 mM stock) was diluted 2.5 folds to 2 mM with 100% dimethyl sulfoxide; and the compound was diluted into 10 concentrations at an equal ratio of 1:3 in a 384-well dilution plate. 4. […] 6. […] 7. By fitting the data with XLFit 5.0 based on the parameters formula, the IC50 value was calculated as: Y=Bottom+(Top−Bottom)/(1+10^((Log IC50−X)*HillSlope)).

RET, sequence (P07949 29-1114): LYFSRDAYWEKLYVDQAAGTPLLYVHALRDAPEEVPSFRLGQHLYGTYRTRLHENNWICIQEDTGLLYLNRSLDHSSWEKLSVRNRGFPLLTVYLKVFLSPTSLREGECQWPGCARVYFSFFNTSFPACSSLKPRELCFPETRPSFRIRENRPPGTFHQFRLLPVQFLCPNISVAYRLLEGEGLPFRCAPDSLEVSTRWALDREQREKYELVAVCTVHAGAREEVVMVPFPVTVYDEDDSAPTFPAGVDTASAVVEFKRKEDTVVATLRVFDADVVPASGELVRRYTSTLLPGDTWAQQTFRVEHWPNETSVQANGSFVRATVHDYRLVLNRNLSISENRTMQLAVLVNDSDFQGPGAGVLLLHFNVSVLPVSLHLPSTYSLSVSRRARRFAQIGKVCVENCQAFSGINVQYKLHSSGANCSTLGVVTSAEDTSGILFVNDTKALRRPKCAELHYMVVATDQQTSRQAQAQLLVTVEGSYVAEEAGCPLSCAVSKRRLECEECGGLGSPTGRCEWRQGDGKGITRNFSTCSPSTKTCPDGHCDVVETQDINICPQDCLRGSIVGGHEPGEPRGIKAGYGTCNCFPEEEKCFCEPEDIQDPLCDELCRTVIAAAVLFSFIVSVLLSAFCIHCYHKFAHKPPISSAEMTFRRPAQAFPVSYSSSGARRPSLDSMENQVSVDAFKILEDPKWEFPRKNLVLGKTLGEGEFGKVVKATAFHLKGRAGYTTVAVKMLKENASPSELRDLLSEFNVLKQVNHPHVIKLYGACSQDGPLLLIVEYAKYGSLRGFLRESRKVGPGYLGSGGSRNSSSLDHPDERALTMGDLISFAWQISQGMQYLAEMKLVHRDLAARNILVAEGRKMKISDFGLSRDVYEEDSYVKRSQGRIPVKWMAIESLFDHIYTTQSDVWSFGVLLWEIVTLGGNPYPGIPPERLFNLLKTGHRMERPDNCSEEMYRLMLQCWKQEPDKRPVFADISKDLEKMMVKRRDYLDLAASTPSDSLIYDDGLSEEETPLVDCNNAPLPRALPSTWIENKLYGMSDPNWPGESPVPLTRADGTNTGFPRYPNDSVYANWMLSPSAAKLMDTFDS

| SMILES | IC50 (RET) [nM] | IC50 (VEGFR2) [nM] | GI50 (Ba/F3-KIF5B-RET cell) [nM] |
| --- | --- | --- | --- |
| C[C@@H](c1ccc(-n2cc(F)cn2)nc1)N(C)c1ccc(-c2cc(OCC(C)(C)C#N)cn3ncc(C#N)c23)cn1 [Compound 18, (S)-6-(2-cyano-2-methylpropoxy)-4-(6-((1-(6-(4-fluoro-1H-pyrazol-1-yl)pyridine-3-yl)ethyl)(methyl)amino)pyridin-3-yl)pyrazolo[1,5-a]pyridine-3-carbonitrile] | 0.4 | 135 | 40 |
| CC(C)(O)COc1cc(-c2ccc(NCc3ccc(N4CCOCC4)nc3)nc2)c2c(C#N)cnn2c1 [Compound 12] | 12.8 | 107 | 75.5 |
| CC(C)COc1cc(-c2ccc(N(C)[C@@H](C)c3ccc(-n4cc(F)cn4)nc3)nc2)c2c(C#N)cnn2c1 [Compound 33, (S)-4-(6-((1-(6-(4-fluoro-1H-pyrazol-1-yl)pyridin-3-yl)ethyl)(methyl)amino)pyridine-3-yl)-6-isobutoxypyrazolo[1,5-a]pyridine-3-carbonitrile] | 3.04 | > 5000 | 413 |
| CC(Nc1ccc(-c2cc(OCC(C)(C)O)cn3ncc(C#N)c23)cn1)c1ccc(-n2cc(F)cn2)nc1 (stereo not drawn) [Compound 6] | 1.2 | 11.8 | 50.5 |
| CC(C)(O)COc1cc(-c2ccc(NCc3ccc4cccnc4c3)nc2)c2c(C#N)cnn2c1 [Compound 13] | 5.17 | 136 | 50.8 |
| CC[C@H](Nc1ccc(-c2cc(OCC(C)(C)O)cn3ncc(C#N)c23)cn1)c1ccc(-n2cc(F)cn2)nc1 [Compound 15, (S)-4-(6-((1-(6-(4-fluoro-1H-pyrazol-1-yl)pyridin-3-yl)propyl)amino)pyridin-3-yl)-6-(2-hydroxy-2-methylpropoxy)pyrazolo[1,5-a]pyridine-3-carbonitrile] | 0.58 | 2.95 | 10.4 |
| C[C@@H](c1ccc(-n2cc(F)cn2)nc1)N(C)c1ccc(-c2cc(OCC(F)(F)F)cn3ncc(C#N)c23)cn1 [Compound 35, (S)-4-(6-((1-(6-(4-fluoro-1H-pyrazol-1-yl)pyridin-3-yl)ethyl)(methyl)amino)pyridine-3-yl)-6-(2,2,2-trifluoroethoxy)pyrazolo[1,5-a]pyridine-3-carbonitrile] | 6.94 | 819 | 396 |
| C[C@@H](c1ccc(-n2cc(F)cn2)nc1)N(C)c1ccc(-c2cc(OCCO)cn3ncc(C#N)c23)cn1 [Compound 20] | 0.25 | 10.1 | 13.5 |
| COc1ccc([C@H](C)N(C)c2ccc(-c3cc(OCC(C)(C)O)cn4ncc(C#N)c34)cn2)cn1 [Compound 43, (S)-6-(2-hydroxy-2-methylpropoxy)-4-(6-((1-(6-methoxypyridin-3-yl)ethyl)(methyl)amino)pyridin-3-yl)pyrazolo[1,5-a]pyridine-3-carbonitrile] | 2.05 | 245 | 35 |

The next lines start with the values.

| IC50 (RET) [nM] | IC50 (VEGFR2) [nM] | GI50 (Ba/F3-KIF5B-RET cell) [nM] | SMILES |
| --- | --- | --- | --- |
| 2.25 | 1190 | 177 | C[C@@H](c1ccc(-n2cc(F)cn2)nc1)N(C)c1ccc(-c2cc(OCC3CC3)cn3ncc(C#N)c23)cn1 [Compound 28, (S)-6-(cyclopropylmethoxy)-4-(6-((1-(6-(4-fluoro-1H-pyrazol-1-yl)pyridin-3-yl)ethyl)(methyl)amino)pyridin-3-yl)pyrazolo[1,5-a]pyridine-3-carbonitrile] |
| 19.6 | 116 | 145 | CC(C)(O)COc1cc(-c2ccc(NCc3ccc(-c4cccnc4)nc3)nc2)c2c(C#N)cnn2c1 [Compound 9, 4-(6-(([2,3′-bipyridyl]-5-ylmethyl)amino)pyridin-3-yl)-6-(2-hydroxy-2-methylpropoxy)pyrazole[1,5-a]pyridine-3-carbonitrile] |
| 2.08 | 90.8 | 7.3 | CC(C)(O)COc1cc(-c2ccc(NCc3ccc(N4CCCC4)nc3)nc2)c2c(C#N)cnn2c1 [Compound 10, 6-(2-hydroxy-2-methylpropoxy)-4-(6-(((6-(pyrrolidin-1-yl)pyridin-3-yl)methyl)amino)pyridine-3-yl)pyrazo[1,5-a]pyridine-3-carbonitrile] |
| 6.3 | 44.7 | 85.1 | C[C@@H](Nc1ccc(-c2cc(OCC(C)(C)O)cn3ncc(C#N)c23)cn1)c1ccc(-n2cc(F)cn2)nc1 [Compound 5, (R)-4-(6-((1-(6-(4-fluoro-1H-pyrazol-1-yl)pyridin-3-yl)ethyl)amino)pyridin-3-yl)-6-(2-hydroxy-2-methylpropoxy)pyrazolo[1,5-a]pyridine-3-carbonitrile] |
| 4.32 | ≥ 5440 | 142 | C[C@@H](c1ccc(-n2cc(F)cn2)nc1)N(C)c1ccc(-c2cc(N3CCC(F)(F)CC3)cn3ncc(C#N)c23)cn1 [Compound 48] |
| 4.23 | > 5000 | 224 | C[C@@H](c1ccc(-n2cc(F)cn2)nc1)N(C)c1ccc(-c2cc(OCC#N)cn3ncc(C#N)c23)cn1 [Compound 32, (S)-4-(6-((1-(6-(4-fluoro-1H-pyrazol-1-yl)pyridin-3-yl)ethyl)(methyl)amino)pyridine-3-yl)-6-cyanomethoxypyrazolo[1,5-a]pyridine-3-carbonitrile] |
| 1.63 | 15.6 | 35.5 | C[C@H](Nc1ccc(-c2cc(OCC(C)(C)O)cn3ncc(C#N)c23)cn1)c1ccc(-n2cc(F)cn2)cc1 [Compound 16, (S)-4-(6-((1-(4-(4-fluoro-1H-pyrazol-1-yl)phenyl)ethyl)amino)pyridin-3-yl)-6-(2-hydroxy-2-methylpropoxy)pyrazolo[1,5-a]pyridine-3-carbonitrile] |
| 1.85 | 176 | 1030 | C[C@@H](c1ccc(N2CCCC2)nc1)N(C)c1ccc(-c2cc(OCC(C)(C)O)cn3ncc(C#N)c23)cn1 [Compound 62] |
| 1.25 | > 5000 | 30.7 | C[C@@H](c1ccc(-n2cc(F)cn2)nc1)N(C)c1ccc(-c2cc(NCC3CC3)cn3ncc(C#N)c23)cn1 [Compound 49, (S)-6-((cyclopropylmethyl)amino)-4-(6-((1-(6-(4-fluoro-1H-pyrazol-1-yl)pyridin-3-yl)ethyl)(methyl)amino)pyridin-3-yl)pyrazolo[1,5-a]pyridine-3-carbonitrile] |
